In PubChem BioAssay (NCI):
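Dose response: 5 concentrations. Exposure: 48 h. Format: 96-well plates. Endpoint: linear interpolation; highest concentration if not reached. TGI denotes the concentration required for complete inhibition of growth.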

Key:
Test in all cases: DTP human tumour cell line panel, 48 h
OVCAR-5 ovarian = test system: OVCAR-5 ovarian
RXF 393 renal = test system: RXF 393 renal
U251 CNS = test system: U251 CNS
SF-268 CNS = test system: SF-268 CNS
SW-620 colon = test system: SW-620 colon
NCI-H226 lung = test system: NCI-H226 lung
NCI-H460 lung = test system: NCI-H460 lung
A498 renal = test system: A498 renal
A549 NSCLC = test system: A549 NSCLC
NCI/ADR-RES ovarian = test system: NCI/ADR-RES ovarian
ACHN renal = test system: ACHN renal
HL-60(TB) leukemia = test system: HL-60(TB) leukemia
SR leukemia = test system: SR leukemia
NCI-H522 lung = test system: NCI-H522 lung
MALME-3M melanoma = test system: MALME-3M melanoma

Row | Compound | TGI (OVCAR-5 ovarian) | TGI (RXF 393 renal) | TGI (U251 CNS) | TGI (SF-268 CNS) | TGI (SW-620 colon) | TGI (NCI-H226 lung) | TGI (NCI-H460 lung) | TGI (A498 renal) | TGI (A549 NSCLC) | TGI (NCI/ADR-RES ovarian) | TGI (ACHN renal) | TGI (HL-60(TB) leukemia) | TGI (SR leukemia) | TGI (NCI-H522 lung) | TGI (MALME-3M melanoma)
1 | Cc1ccc(NC2=CC(=O)C(NO)c3ccccc32)cc1 (centres undefined) | 25 µM | 12.7 µM | 11.9 µM | 17.7 µM | > 100 µM | 49.3 µM | 13.3 µM | 33.4 µM | 10.6 µM | 5.81 µM | 12.5 µM | 4.73 µM | – | – | –
2 | CC(C)OCC1CC(CC(=O)Nc2nncs2)C(=O)O1 (centres undefined) | > 100 µM | – | > 100 µM | > 100 µM | > 100 µM | > 100 µM | > 100 µM | – | > 100 µM | > 100 µM | > 100 µM | – | > 100 µM | – | –
3 | O=c1c2nc3ccccc3c(=O)n2ncn1-c1ccccc1Cl | > 100 µM | – | > 100 µM | > 100 µM | > 100 µM | > 100 µM | > 100 µM | > 100 µM | > 100 µM | – | > 100 µM | > 100 µM | > 100 µM | > 100 µM | > 100 µM
4 | O=C1NC(=S)N/C1=C\c1ccc(Br)s1 | > 100 µM | > 100 µM | > 100 µM | > 100 µM | > 100 µM | > 100 µM | > 100 µM | > 100 µM | – | – | > 100 µM | > 100 µM | > 100 µM | > 100 µM | > 100 µM
5 | O=C(c1ccc(Cl)cc1)N(C(=O)N1CCC(c2ccccc2)CC1)c1ccccc1 | 57.3 µM | 62.5 µM | > 100 µM | > 100 µM | > 100 µM | 99.7 µM | – | 96.5 µM | – | > 100 µM | > 100 µM | 61.5 µM | – | – | 84.6 µM
6 | CCN(CC)/C(Sc1ccccc1)=C(\C(Cl)=C(Cl)Cl)[N+](=O)[O-] | – | 36.8 µM | – | 58.3 µM | 40.3 µM | 42.8 µM | 50.3 µM | 36.3 µM | 52.4 µM | > 100 µM | 31.7 µM | 5.94 µM | – | 33.3 µM | 39.9 µM
7 | CC(C)CC(NC(=O)OC(C)(C)C)C(=O)Nc1ccc(Nc2nc(F)nc(-c3c4ccccc4c4n3CCS4)n2)cc1 (centres undefined) | 44.7 µM | 62.1 µM | 33.3 µM | 61.3 µM | 30.7 µM | – | 36.5 µM | 45.8 µM | > 100 µM | – | 39.2 µM | 46.5 µM | 34.7 µM | 29.2 µM | 38.9 µM
8 | Cc1cc(N(CCC#N)CCC#N)ccc1/C(N=Nc1ccc(C(=O)O)cc1)=N\NC(=O)c1cc(Cl)ccc1O | > 100 µM | 78.9 µM | 63.1 µM | 42.3 µM | – | 49.9 µM | > 100 µM | 87.7 µM | > 100 µM | > 100 µM | > 100 µM | – | > 100 µM | 35.9 µM | > 100 µM
9 | S=C1N(/N=C/c2c3ccccc3cc3ccccc23)C(=Nc2ccccc2)C(=Nc2ccccc2)N1c1ccccc1 | > 100 µM | > 100 µM | > 100 µM | > 100 µM | > 100 µM | > 100 µM | > 100 µM | – | > 100 µM | > 100 µM | – | – | > 100 µM | > 100 µM | > 100 µM
